Counter-ions that a name gives are not always drawn. Like-named read-outs stand apart in the source and are kept apart here.
How the values were obtained:
[1] = biological target: T1, purified tubulin (Sus scrofa, UniProt P02550+P02554); assay: Tubulin polymerisation assay (CytoDYNAMIX Screen kit, absorbance at 340 nm); format: biochemical; settings: for inhibition at 5 µM / % Inhibition of tubulin polymerization at 5 μM: 5 μM compound, 4 mg/ml tubulin; for inhibition at 5 µM: read-out: % Inhibition of tubulin polymerization at 5 μM; for IC50: tubulin polymerization
T1 construct: purchased Cytoskeleton #BK006P
T1 sequence (P02554 whole entry): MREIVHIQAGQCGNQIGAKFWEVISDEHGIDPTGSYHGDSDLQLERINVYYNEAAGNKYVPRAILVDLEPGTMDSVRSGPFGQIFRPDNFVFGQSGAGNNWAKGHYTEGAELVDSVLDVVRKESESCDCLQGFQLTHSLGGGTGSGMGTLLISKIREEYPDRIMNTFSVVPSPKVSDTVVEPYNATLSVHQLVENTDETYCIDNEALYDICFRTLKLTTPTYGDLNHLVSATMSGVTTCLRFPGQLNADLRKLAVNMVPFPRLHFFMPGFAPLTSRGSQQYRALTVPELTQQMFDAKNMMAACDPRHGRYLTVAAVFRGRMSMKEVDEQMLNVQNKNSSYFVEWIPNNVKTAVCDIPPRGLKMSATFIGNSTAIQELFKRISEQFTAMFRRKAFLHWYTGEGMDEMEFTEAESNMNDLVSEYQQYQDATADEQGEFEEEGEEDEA
T1 sequence (P02550 whole entry): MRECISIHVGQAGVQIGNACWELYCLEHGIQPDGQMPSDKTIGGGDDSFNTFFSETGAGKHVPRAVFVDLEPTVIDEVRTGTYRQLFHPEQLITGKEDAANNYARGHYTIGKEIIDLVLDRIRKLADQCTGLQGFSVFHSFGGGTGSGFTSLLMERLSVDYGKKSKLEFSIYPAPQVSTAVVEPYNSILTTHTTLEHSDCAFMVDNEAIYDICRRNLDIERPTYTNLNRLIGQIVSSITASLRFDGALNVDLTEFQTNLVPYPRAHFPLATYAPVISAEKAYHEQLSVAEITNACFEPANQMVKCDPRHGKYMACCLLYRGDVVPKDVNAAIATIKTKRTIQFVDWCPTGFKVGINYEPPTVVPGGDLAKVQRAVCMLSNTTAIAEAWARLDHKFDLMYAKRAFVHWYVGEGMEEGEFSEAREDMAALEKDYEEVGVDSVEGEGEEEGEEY
Description: The polymerization of purified tubulin was monitored spectrophotometrically by the change in absorbance at 340 nm using the CytoDYNAMIX Screen kit (#BK006P, Cytoskeleton) according to the instructions of the manufacturer. […] The absorbance was measured at 1 minute intervals for 60 minutes. The test compound was added to a 4 mg/ml tubulin solution containing 10% glycerol and 1 mM GTP in Buffer 1 (Buffer 1: 80 mM PIPES; 2 mM MgCl2; 0.5 mM EGTA, pH 6.9). Increased absorbance indicates increase in microtubule formation from tubulin heterodimers.

[2] = test system: K562 cell line; assay: MTT assay: cytotoxicity against the K562 cell line; format: cell-based; settings: K562 cells, 72 h, growth inhibition
Description: Assessment of Cell Viability via MTT Assay: Cytotoxicity of compounds against the K562 cell line was assessed using the [3-(4,5-dimethylthiazol-2-yl)-2,5-diphenyl tetrazolium bromide] (MTT) assay. Fifteen thousand tumor cells were seeded into wells of flat-bottomed 96-well plates. An amount of 2 μL of a dilution series of each compound dissolved in DMSO was added to 198 μL of appropriate growth medium at three replicates per concentration and the plates were incubated in a 5% CO2 incubator at 37° C. After 72 h, the number of metabolically active cells was determined by MTT assay. Absorbance of each well was measured at 550 nm on a Tecan Sunrise reader. Dose-response curves for growth inhibition were generated as a percentage of untreated control. IC50 was determined by nonlinear regression (Prism, Graph Pad Software, Inc.).

[3] = test system: HUVEC; assay: Pre-established vessels disruption (capillary tubes on Matrigel); format: cell-based; settings: HUVEC tubes formed 5 hours, then compounds overnight
Description: To explore the effect of the compounds on pre-established vasculature, twenty thousand cells (HUVEC) were seeded and incubated over Matrigel for 5 hours to allow the capillary tubes to form. Then, compounds were added and incubated overnight. The disappearance of existing vasculature was monitored with fluorescent microscopy.

[4] = test system: Endothelial cells (HUVEC); assay: Neovessels formation inhibition (capillary tube formation on Matrigel); format: cell-based
Description: The capability of compounds to inhibit the formation of capillaries was evaluated in vitro. Twenty thousand Endothelial cells (HUVEC) were placed on a Matrigel matrix and allowed to form capillary tubes in the presence or absence of the compounds overnight. The cells were stained with calcein AM, and the effect of the compounds on capillary tube formation was assessed using an inverted fluorescent microscope (Nikon). The reference compound used in this assay AVE-8063 is 3-amino-deoxycombretastatin A-4.

[5] = Homo sapiens, read-out: Pre-established Vessels Disruption Number of Branch Junctions IC50
[6] = Homo sapiens, read-out: Pre-established Vessels Disruption Total Tubule Length IC50
[7] = Homo sapiens, HUVEC on Matrigel, compounds overnight, read-out: Neovessels Formation Inhibition Number of Branch Junctions IC50
[8] = Homo sapiens, HUVEC on Matrigel, compounds overnight, read-out: Neovessels Formation Inhibition Total Tubule Length IC50
[9] = read-out: Pre-established Vessels Disruption Number of Branch Junctions IC50
[10] = read-out: Pre-established Vessels Disruption Total Tubule Length IC50
[11] = HUVEC on Matrigel, compounds overnight, read-out: Neovessels Formation Inhibition Number of Branch Junctions IC50
[12] = HUVEC on Matrigel, compounds overnight, read-out: Neovessels Formation Inhibition Total Tubule Length IC50

Structure (SMILES)	inhibition at 5 µM [1] [%]	IC50 [1] [nM]	IC50 ([2]; Homo sapiens) [nM]	IC50 [4, 7] [nM]	IC50 [4, 8] [nM]	also measured
COc1ccc(/C=C\c2cc(OC)c(OC)c(OC)c2)cc1NC(=O)[C@@H](N)CO [AVE8062, reference compound]	59.8	1790	7.78	13.9	15.4	IC50 [3, 5]: 32.5 nM; IC50 [3, 6]: 52.9 nM
COc1ccc(/C=C\c2cc(OC)c(OC)c(OC)c2)cc1N [AVE8063, 3-amino-deoxycombretastatin A-4, reference compound]	–	1070	–	–	–	% Inhibition of tubulin polymerization at 5 μM [1]: 71.29%; IC50 [2]: 2.71 nM; IC50 [3, 9]: 5.72 nM; IC50 [3, 10]: 7.74 nM; IC50 [4, 11]: 3.12 nM; IC50 [4, 12]: 5.33 nM
COc1ccc(N(C)c2nc(C)nc3ccccc23)cc1 [Azixa, reference compound]	–	–	2.15	–	–	IC50 [3, 5]: 3.75 nM; IC50 [3, 6]: 6.01 nM; IC50 ([4]; Homo sapiens, HUVEC, read-out: Neovessels Formation Inhibition Number of Branch Junctions IC50 (nM)): 1.38 nM; IC50 ([4]; Homo sapiens, HUVEC, read-out: Neovessels Formation Inhibition Total Tubule Length IC50 (nM)): 2.16 nM
COc1cc(C(=O)c2c(C)oc3c(O)c(OC)ccc23)cc(OC)c1OC [BNC105, reference compound]	–	1780	–	–	–	% Inhibition of tubulin polymerization at 5 μM [1]: 64.75%; IC50 [2]: 0.55 nM; IC50 [3, 9]: 5.2 nM; IC50 [3, 10]: 6.37 nM; IC50 [4, 11]: 1.76 nM; IC50 [4, 12]: 2.49 nM
COc1cc(C(=O)c2c(C)oc3c(OP(=O)([O-])O)c(OC)ccc23)cc(OC)c1OC.[Na+] [BNC105P, reference compound]	–	4100	–	–	–	% Inhibition of tubulin polymerization at 5 μM [1]: 39.00%; IC50 [2]: 17.3 nM; IC50 [3, 9]: 5.83 nM; IC50 [3, 10]: 7.37 nM; IC50 [4, 11]: 0.44 nM; IC50 [4, 12]: 1.53 nM
COc1ccc(/C=C\c2cc(OC)c(OC)c(OC)c2)cc1O [Combretastatin, reference compound]	68.9	–	2.07	–	–	–
CCOc1ccc2c(Cc3cc(OC)c(OC)c(OC)c3)cncc2c1NS(N)(=O)=O [Compound 8, 7-Ethoxy-4-(3,4,5-trimethoxy-benzyl)isoquinolin-8-yl]-sulfamide hydrochloride]	–	–	53.4	100	138	–
CCOc1ccc2c(Cc3cc(OC)c(OCC)c(OC)c3)cncc2c1O [Compound 14, 4-(4-Ethoxy-3,5-dimethoxybenzyl)-7-ethoxyisoquinolin-8-ol hydrochloride]	–	1050	30.3	31.1	39.5	–
CCOc1cc(Cc2cncc3c(O)c(OCC)ccc23)cc(OC)c1OC [Compound 15, 4-(3-Ethoxy-4,5-dimethoxybenzyl)-7-ethoxyisoquinolin-8-ol hydrochloride]	69	970	105	–	–	–
CCOc1ccc2c(Cc3cc(OC)c(OCC)c(OC)c3)cncc2c1N [Compound 18, 4-(4-Ethoxy-3,5-dimethoxybenzyl)-7-ethoxyisoquinolin-8-amine dihydrochloride]	61.4	990	13.2	13	18.7	IC50 [3, 5]: 17.8 nM; IC50 [3, 6]: 32.1 nM
CCCOc1c(OC)cc(Cc2cncc3c(O)c(OCC)ccc23)cc1OC [Compound 19, 4-(3,5-Dimethoxy-4-propoxybenzyl)-7-ethoxyisoquinolin-8-ol hydrochloride]	61.9	1850	21.5	14.4	23	IC50 [3, 5]: 6.33 nM; IC50 [3, 6]: 15.9 nM
COc1ccc2c(C(=O)c3cc(OC)c(OC)c(OC)c3)cncc2c1 [Compound 28, (7-Methoxyisoquinolin-4-yl)(3,4,5-trimethoxyphenyl)methanone hydrochloride]	44.5	–	42.1	–	–	–
CCOc1ccc2c(Cc3cc(OC)c(OCC(F)(F)F)c(OC)c3)cncc2c1O [Compound 30, 4-(3,5-Dimethoxy-4-(2,2,2-trifluoroethoxy)benzyl)-7-ethoxyisoquinolin-8-ol hydrochloride]	21	–	63.8	–	–	–
CCOc1ccc2c(Cc3cc(OC)c(OCC(C)C)c(OC)c3)cncc2c1N [Compound 31, 4-(4-Isobutoxy-3,5-dimethoxybenzyl)-7-ethoxyisoquinolin-8-amine dihydrochloride]	55.4	1540	37	–	–	–
CCOc1ccc2c(Cc3cc(OC)c(OCCC(C)C)c(OC)c3)cncc2c1O [Compound 33, 7-Ethoxy-4-(4-(isopentyloxy)-3,5-dimethoxybenzyl)isoquinolin-8-ol hydrochloride]	59	1310	160	–	–	–
CCCCOc1c(OC)cc(Cc2cncc3c(O)c(OCC)ccc23)cc1OC [Compound 38, 4-(4-Butoxy-3,5-dimethoxybenzyl)-7-ethoxyisoquinolin-8-ol hydrochloride]	67.4	1110	30.4	–	–	–
CCCOc1c(OC)cc(C(=O)c2cncc3c(N)c(OCC)ccc23)cc1OC [Compound 66, (8-Amino-7-ethoxyisoquinolin-4-yl)(3,5-dimethoxy-4-propoxyphenyl)methanone hydrochloride]	–	–	4.27	2.23	3.58	IC50 [3, 5]: 3.76 nM; IC50 [3, 6]: 5.47 nM
CCOc1ccc2c(C(=O)c3cc(OC)c(OCC(C)C)c(OC)c3)cncc2c1OC(C)=O [Compound 78, 7-Ethoxy-4-(4-isobutoxy-3,5-dimethoxybenzoyl)isoquinolin-8-yl acetate]	–	–	7.02	–	8.07	IC50 [3, 5]: 11.1 nM; IC50 [3, 6]: 19.4 nM
CCOc1ccc2c(C(=O)c3cc(OC)c(OC)c(OC)c3)cncc2c1NC(C)=O [Compound 111, N-(7-Ethoxy-4-(3,4,5-trimethoxybenzoyl)isoquinolin-8-yl)acetamide hydrochloride]	–	–	96.8	–	–	–
CCOc1ccc2c(C(=O)c3cc(OC)c(OC)c(OC)c3)cncc2c1NC(=O)CN [Compound 112, 2-Amino-N-(7-ethoxy-4-(3,4,5-trimethoxybenzoyl)isoquinolin-8-yl)acetamide]	–	–	7.9	16.4	31.3	IC50 [3, 5]: 68.5 nM; IC50 [3, 6]: 62.8 nM
CCOc1ccc2c(C(=O)c3cc(OC)c(OC)c(OC)c3)cncc2c1NC(=O)OCC(C)C [Compound 113, Isobutyl (7-ethoxy-4-(3,4,5-trimethoxybenzoyl)isoquinolin-8-yl)carbamate hydrochloride]	–	–	231	–	–	–
CCOc1ccc2c(C(=O)c3cc(OC)c(OC)c(OC)c3)cncc2c1NC(=O)[C@@H](N)Cc1ccccc1 [Compound 114, (S)-2-Amino-N-(7-ethoxy-4-(3,4,5-trimethoxybenzoyl)isoquinolin-8-yl)-3-phenylpropanamide dihydrochloride]	–	–	92.6	–	–	–
CCOc1ccc2c(C(=O)c3cc(Br)c(OC)c(OC)c3)cncc2c1OC(C)=O [Compound 115, 4-(3-Bromo-4,5-dimethoxybenzoyl)-7-ethoxyisoquinolin-8-yl acetate]	–	–	20.8	–	–	–
CCOc1ccc2c(C(=O)c3cc(Br)c(OC)c(OC)c3)cncc2c1O [Compound 116, (3-Bromo-4,5-dimethoxyphenyl)(7-ethoxy-8-hydroxyisoquinolin-4-yl)methanone hydrochloride]	–	–	86.9	–	–	–
O=C(Nc1ccncc1)C(=O)c1cn(Cc2ccc(Cl)cc2)c2ccccc12 [Indibulin, reference compound]	–	–	197	–	–	–
CC(=O)O[C@H]1C(=O)[C@@]2(C)[C@H]([C@H](OC(=O)c3ccccc3)[C@]3(O)C[C@H](OC(=O)[C@H](O)[C@@H](NC(=O)c4ccccc4)c4ccccc4)C(C)=C1C3(C)C)[C@]1(OC(C)=O)CO[C@@H]1C[C@@H]2O [Taxol, reference compound]	–	–	6.9	0.79	7.16	–
